According to patent publication US11230525B2, “Organic sulfur compound, method for preparing same, and pharmaceutical composition for preventing or treating cancer or an inflammatory disease, containing same as active ingredient” (SOOKMYUNG WOMENS UNIVERSITY INDUSTRY-ACADEMIC COOPERATION …, priority 2016, dated 2022):

What was measured:
[1] = molecular target: T1, HDAC 8 (Homo sapiens, UniProt Q9BY41); experiment: HDAC enzyme fluorescence assay, HDAC 8; type: biochemical; set-up: Inhibitory activity (%) HDAC 8: concentration or dose not given beside the values; details: (HDAC inhibitory activity of example compound/HDAC inhibitory activity of SAHA) × 100
T1 sequence (Q9BY41 1-377): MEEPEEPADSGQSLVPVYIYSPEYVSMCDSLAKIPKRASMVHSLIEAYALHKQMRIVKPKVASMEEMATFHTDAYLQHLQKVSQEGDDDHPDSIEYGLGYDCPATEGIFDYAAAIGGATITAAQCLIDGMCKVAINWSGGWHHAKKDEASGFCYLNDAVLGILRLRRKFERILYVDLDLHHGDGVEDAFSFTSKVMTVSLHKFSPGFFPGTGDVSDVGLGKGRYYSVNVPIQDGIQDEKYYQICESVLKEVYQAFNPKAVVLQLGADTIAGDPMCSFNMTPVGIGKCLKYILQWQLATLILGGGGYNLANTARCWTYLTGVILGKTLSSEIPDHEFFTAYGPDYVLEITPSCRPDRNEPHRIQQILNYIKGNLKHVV
Protocol: Particularly, HDAC enzyme analysis was performed based on a uniform fluorescence emission assay. First, the compounds of examples of the present invention or comparative example 1 were diluted at different concentrations, which were treated to the analysis buffer containing 25 mM HEPES (pH 8.0), 137 mM NaCl, 1 mM MgCl2 and 2.7 mM KCL, followed by culture of the recombinant HDAC enzyme. 10 minutes later, Boc-Lys(acetyl)-AMC, the fluorescence inducing substrate, was added thereto, followed by further culture at 37° C. At this time, the concentration of the fluorescence inducing substrate and the culture time were adjusted according to the isotypes of the HDAC enzyme. The reaction was terminated by treating trypsin at room temperature for 20 minutes. The fluorescence intensity was measured using a fluorescence analyzer at an excitation wavelength of 380 nm and an emission wavelength of 460 nm, respectively. The inhibition rate was calculated from the measured fluorescence intensity of each well with comparing to that of the control well. IC50 of the compound was calculated by analyzing the dose-reaction inhibition curve.
The HDAC 8 inhibitory activity was presented as percentage of relative activity by the inhibitory activity of SAHA (Vorinostat) used as a reference compound.

[2] = test system: prostate cancer cell line (PC-3); experiment: Cancer proliferation inhibitory activity (SRB, GI50), PC-3; type: cell-based; details: Homo sapiens, 48 hours
Source text: (§1) Particularly, the cancer proliferation inhibitory activity of the compounds of comparative examples (Ajoene and the compounds isosteric to Ajoene wherein R1 is allyl or benzyl) and the compounds of examples of the present invention (the compounds not isosteric to Ajoene wherein R^1 is phenyl) was investigated in human cancer cell lines (renal cancer cell line (ACHN), breast cancer cell line (MDA-MB-231), colorectal cancer cell line (HCT-15), prostate cancer cell line (PC-3), gastric cancer cell line (NUGC-3) and lung cancer cell line (NCl-H23)).
(§2) At this time, the cancer cell lines (renal cancer cell line (ACHN), breast cancer cell line (MDA-MB-231), colorectal cancer cell line (HCT-15), prostate cancer cell line (PC-3), gastric cancer cell line (NUGC-3) and lung cancer cell line (NCl-H23)) above were purchased from American Type Culture Collection (Manassas, Va., USA). Cells were cultured in RPMI 1640 supplemented with 10% fetal bovine serum, which were maintained 37° C. under 5% CO2 wet atmosphere. The cells were distributed in a 96-well plate, which was not treated (treated only with 0.1% DMSO) or treated with the compounds of examples of the present (0.1 μM to 10 μM). 48 hours later, the cells were fixed in 50% trichloroacetic acid, followed by staining with 1% acetic acid containing 0.4% sulphorodamine B dissolved therein. The non-conjugated dye was removed by washing with 1% acetic acid, and the protein conjugated dye was extracted with 10 mM Tris base (pH 10.5). Then, OD540 was measured with VersaMax microplate reader (Molecular devices, Sunnyvale, Calif., USA). GI50 was calculated by using GraphPad Prism software (GraphPad Software, Inc., San Diego, Calif., USA).
(§3) Based on the results obtained in experimental example 1-1 above, the derivatives wherein R^1 is phenyl were additionally synthesized. The cancer proliferation inhibitory activity of the derivatives was evaluated by the same manner as described in experimental example 1-1.

[3] = test system: gastric cancer cell line (NUGC-3); experiment: Cancer proliferation inhibitory activity (SRB, GI50), NUGC-3; type: cell-based; details: Homo sapiens, 48 hours
Source text: as §1, §2, §3

[4] = test system: breast cancer cell line (MDA-MB-231); experiment: Cancer proliferation inhibitory activity (SRB, GI50), MDA-MB-231; type: cell-based; details: Homo sapiens, 48 hours
Source text: as §1, §2, §3

[5] = test system: renal cancer cell line (ACHN); experiment: Cancer proliferation inhibitory activity (SRB, GI50), ACHN; type: cell-based; details: Homo sapiens, 48 hours
Source text: as §1, §2, §3

[6] = test system: lung cancer cell line (NCl-H23); experiment: Cancer proliferation inhibitory activity (SRB, GI50), NCI-H23; type: cell-based; details: Homo sapiens, 48 hours
Source text: as §1, §2, §3

[7] = test system: colorectal cancer cell line (HCT-15); experiment: Cancer proliferation inhibitory activity (SRB, GI50), HCT-15; type: cell-based; details: Homo sapiens, 48 hours
Source text: as §1, §2, §3

Inhibitory activity (%) HDAC 8 [1] [%]	GI50 [2] [µM]	GI50 [3] [µM]	GI50 [4] [µM]	GI50 [5] [µM]	GI50 [6] [µM]	GI50 [7] [µM]	Compound
24.9							[O-][S+](C/C=C\SSCc1ccc(F)cc1)c1ccccc1 (stereo not shown) [Example 8, (Z)-1-(4-fluorobenzyl)-2-(3-(phenylsulfinyl)prop-1-enyl)disulfane]
73.8	4.24	1.66	3.58	2.72	2.03	2.33	COc1ccc(CSS/C=C\C[S+]([O-])c2ccccc2)cc1 (stereo not shown) [Example 10, (Z)-1-(4-methoxybenzyl)-2-(3-(phenylsulfinyl)prop-1-enyl)disulfane]
122.9	3.04	3.67	4.41	3.85	2.71	3.01	COc1cccc([S+]([O-])C/C=C\SSCc2ccc(F)cc2)c1 (stereo not shown) [Example 22, (Z)-1-(4-fluorobenzyl)-2-(3-(3-methoxyphenylsulfinyl)prop-1-enyl)disulfane]
109.2	1.97	1.56	2.02	2.46	2.12	1.75	COc1cccc([S+]([O-])C/C=C/SSCc2ccc(F)cc2)c1 (stereo not shown) [Example 21, (E)-1-(4-fluorobenzyl)-2-(3-(3-methoxyphenylsulfinyl)prop-1-enyl)disulfane]
76.6	2.3	1.77	7.5	1.97	2.92	2.78	[O-][S+](C/C=C/SSCc1ccc(Cl)c(Cl)c1)c1ccccc1 (stereo not shown) [Example 13, (E)-1-(3,4-dichlorobenzyl)-2-(3-(phenylsulfinyl)prop-1-enyl)disulfane]
74.4	1.3	1.16	1.56	1.22	2	1.67	[O-][S+](C/C=C/SSCc1ccc(Cl)cc1)c1ccccc1 (stereo not shown) [Example 11, (E)-1-(4-chlorobenzyl)-2-(3-(phenylsulfinyl)prop-1-enyl)disulfane]
37.1	3.89	6.84	3.24	7.11	7.69	10.4	[O-][S+](C/C=C/SSCc1ccc(F)cc1)c1ccccc1 (stereo not shown) [Example 7, (E)-1-(4-fluorobenzyl)-2-(3-(phenylsulfinyl)prop-1-enyl)disulfane]
111.7	0.29	0.24	0.16	0.17	0.27	0.25	COc1ccc([S+]([O-])C/C=C/SSCc2ccc(F)cc2)cc1 (stereo not shown) [Example 33, (E)-1-(4-fluorobenzyl)-2-(3-(4-methoxyphenylsulfinyl)prop-1-enyl)disulfane]
			3.24	2.32			[O-][S+](C/C=C\SSCc1ccc(F)cc1)Cc1ccccc1 (stereo not shown) [Comparative Example 9, (Z)-1-(3-(benzylsulfinyl)prop-1-enyl)-2-(4-fluorobenzyl)disulfane, reference compound]
	2.04			4.1	2.83	2.27	[O-][S+](C/C=C/SSCc1ccc(F)cc1)Cc1ccccc1 (stereo not shown) [Comparative Example 8, (E)-1-(3-(benzylsulfinyl)prop-1-enyl)-2-(4-fluorobenzyl)disulfane, reference compound]
114.3	2.96	3.78	4.34	3.72	3.46	2.6	COc1cccc([S+]([O-])C/C=C\SSCc2ccccc2)c1 (stereo not shown) [Example 20, (Z)-1-benzyl-2-(3-(3-methoxyphenylsulfinyl)prop-1-enyl)disulfane]
74.6							COc1ccc([S+]([O-])C/C=C/SSCc2ccccc2)cc1 (stereo not shown) [Example 31, (E)-1-benzyl-2-(3-(4-methoxyphenylsulfinyl)prop-1-enyl)disulfane]

Second part, the molecule before the results:

Compound	Inhibitory activity (%) HDAC 8 [1] [%]	GI50 [2] [µM]	GI50 [3] [µM]	GI50 [4] [µM]	GI50 [5] [µM]	GI50 [6] [µM]	GI50 [7] [µM]
COc1cccc([S+]([O-])C/C=C\SSCc2ccc(Cl)c(Cl)c2)c1 (stereo not shown) [Example 26, (Z)-1-(3,4-dichlorobenzyl)-2-(3-(3-methoxyphenylsulfinyl)prop-1-enyl)disulfane]	161.9	6.67	3.22	> 10	> 10	> 10	7.25
COc1cccc([S+]([O-])C/C=C/SSCc2ccc(Cl)c(Cl)c2)c1 (stereo not shown) [Example 25, (E)-1-(3,4-dichlorobenzyl)-2-(3-(3-methoxyphenylsulfinyl)prop-1-enyl)disulfane]	138.9						
CCCSS/C=C\C[S+]([O-])c1ccccc1 (stereo not shown) [Example 4, (Z)-1-(3-(phenylsulfinyl)prop-1-enyl)-2-propyldisulfane]	115.2						
C=CCSS/C=C/C[S+]([O-])Cc1ccccc1 (stereo not shown) [Comparative Example 5, (E)-1-allyl-2-(3-(benzylsulfinyl)prop-1-enyl)disulfane, reference compound]		6.85	10.3	5.45	4.43	4.41	9.1
C=CCSS/C=C\C[S+]([O-])c1cccc(OC)c1 (stereo not shown) [Example 16, (Z)-1-allyl-2-(3-(3-methoxyphenylsulfinyl)prop-1-enyl)disulfane]	105.3						
[O-][S+](C/C=C/SSCc1ccccc1)Cc1ccccc1 (stereo not shown) [Comparative Example 7, (E)-1-benzyl-2-(3-(benzylsulfinyl)prop-1-enyl)disulfane, reference compound]		3.88			4.22	6.41	
C=CCSS/C=C\C[S+]([O-])c1ccccc1 (stereo not shown) [Example 2, (Z)-1-allyl-2-(3-(phenylsulfinyl)prop-1-enyl)disulfane]	37.5						
C=CCSS/C=C/C[S+]([O-])c1ccccc1 (stereo not shown) [Example 1, (E)-1-allyl-2-(3-(phenylsulfinyl)prop-1-enyl)disulfane]	32.1						
C=CCSS/C=C\C[S+]([O-])Cc1ccccc1 (stereo not shown) [Comparative Example 4, (Z)-1-allyl-2-(3-(benzylsulfinyl)prop-1-enyl)disulfane, reference compound]		3.28	8.07		5.32	5.98	5.93
CCCSS/C=C/C[S+]([O-])Cc1ccccc1 (stereo not shown) [Comparative Example 6, (E)-1-(3-(benzylsulfinyl)prop-1-enyl)-2-propyldisulfane, reference compound]			3.27	2.19		2.93	3.03
C=CC[S+]([O-])C/C=C\SSCc1ccccc1 (stereo not shown) [Comparative Example 3, (Z)-1-(3-(allylsulfinyl)prop-1-enyl)-2-benzyldisulfane, reference compound]		2.31	2.05	4.64	3.26	3.59	4.96
